Legend:
Carbonic anhydrase 1 = Carbonic anhydrase 1 (Homo sapiens, UniProt P00915)
Description: Inhibition of human carbonic anhydrase 1 preincubated with compound for 15 mins by carbon dioxide hydration assay

Carbonic anhydrase 14 = Carbonic anhydrase 14 (Homo sapiens, UniProt Q9ULX7)
Description: Inhibition of human carbonic anhydrase 14 preincubated with compound for 15 mins by carbon dioxide hydration assay

Carbonic anhydrase 7 = Carbonic anhydrase 7 (Homo sapiens, UniProt P43166)
Description: Inhibition of human carbonic anhydrase 7 preincubated with compound for 15 mins by carbon dioxide hydration assay

Carbonic anhydrase 2 = Carbonic anhydrase 2 (Homo sapiens, UniProt P00918)
Description: Inhibition of human carbonic anhydrase 2 preincubated with compound for 15 mins by carbon dioxide hydration assay

Rattus norvegicus = assay: Anticonvulsant activity against maximal electroshock-induced seizures in po dosed rat; format: functional

Sequence of Carbonic anhydrase 14 (Q9ULX7 whole entry): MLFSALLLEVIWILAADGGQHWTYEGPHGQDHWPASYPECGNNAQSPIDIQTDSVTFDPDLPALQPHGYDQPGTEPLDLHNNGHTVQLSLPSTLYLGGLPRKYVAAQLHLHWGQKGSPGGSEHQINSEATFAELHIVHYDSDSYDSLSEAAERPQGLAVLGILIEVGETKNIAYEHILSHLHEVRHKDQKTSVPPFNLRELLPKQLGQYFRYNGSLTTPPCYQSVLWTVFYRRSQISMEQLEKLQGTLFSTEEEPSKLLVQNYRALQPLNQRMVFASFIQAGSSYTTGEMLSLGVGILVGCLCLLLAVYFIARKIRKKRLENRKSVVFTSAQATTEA
Sequence of Carbonic anhydrase 1 (P00915 whole entry): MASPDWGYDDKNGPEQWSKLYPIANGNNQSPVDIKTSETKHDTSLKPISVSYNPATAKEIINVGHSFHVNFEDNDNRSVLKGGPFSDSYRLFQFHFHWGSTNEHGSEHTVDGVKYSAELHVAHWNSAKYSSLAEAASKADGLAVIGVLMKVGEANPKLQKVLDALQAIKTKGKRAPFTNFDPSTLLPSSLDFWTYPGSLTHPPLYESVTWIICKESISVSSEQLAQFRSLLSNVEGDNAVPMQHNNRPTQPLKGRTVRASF
Sequence of Carbonic anhydrase 7 (P43166 whole entry): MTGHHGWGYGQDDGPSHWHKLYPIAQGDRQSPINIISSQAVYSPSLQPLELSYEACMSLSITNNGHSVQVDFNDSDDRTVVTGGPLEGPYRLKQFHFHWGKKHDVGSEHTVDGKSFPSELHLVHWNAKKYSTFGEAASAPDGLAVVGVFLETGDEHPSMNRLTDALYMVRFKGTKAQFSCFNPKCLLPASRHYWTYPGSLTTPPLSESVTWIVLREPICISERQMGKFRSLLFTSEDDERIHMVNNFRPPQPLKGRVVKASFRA

| Structure (SMILES) | ED50 (Rattus norvegicus) | further results |
| --- | --- | --- |
| CCC(CC)C(=O)NCCc1ccc(S(N)(=O)=O)cc1 | – | Ki (Carbonic anhydrase 1): 407 nM; Ki (Carbonic anhydrase 14): 684 nM; Ki (Carbonic anhydrase 7): 51 nM; Ki (Carbonic anhydrase 2): 33.8 nM |
| CCC(CC(C)C)C(=O)Nc1ccc(S(N)(=O)=O)cc1 (configuration not stated) | 56 µmol/kg | – |
| CCC(CC)C(=O)Nc1ccc(S(N)(=O)=O)cc1 | 37 µmol/kg | – |
| CCCC(CC)C(=O)Nc1ccc(S(N)(=O)=O)cc1 (configuration not stated) | 41 µmol/kg | – |
| CCCC(C(=O)Nc1ccc(S(N)(=O)=O)cc1)C(C)C (configuration not stated) | 139 µmol/kg | – |
| CCCC(C(=O)Nc1ccc(S(N)(=O)=O)cc1)C(C)CC (configuration not stated) | 115 µmol/kg | – |
| CCC(C)CC(=O)Nc1ccc(S(N)(=O)=O)cc1 (configuration not stated) | 61 µmol/kg | – |
| CCCCC(CC)C(=O)Nc1ccc(S(N)(=O)=O)cc1 (configuration not stated) | 80 µmol/kg | – |
| CC(C)C(C(=O)Nc1ccc(S(N)(=O)=O)cc1)C(C)(C)C (configuration not stated) | 58 µmol/kg | – |
| CC(C)(C)CC(=O)Nc1ccc(S(N)(=O)=O)cc1 | 35 µmol/kg | – |
| CCCC(C)C(=O)Nc1ccc(S(N)(=O)=O)cc1 (configuration not stated) | 40 µmol/kg | Ki (Carbonic anhydrase 1): 1710 nM; Ki (Carbonic anhydrase 14): 644 nM; Ki (Carbonic anhydrase 7): 605 nM; Ki (Carbonic anhydrase 2): 220 nM |
| CCC(C)C(=O)Nc1ccc(S(N)(=O)=O)cc1 (configuration not stated) | 30 µmol/kg | – |
| CC(C)(C)C(=O)Nc1ccc(S(N)(=O)=O)cc1 | 165 µmol/kg | – |
| NS(=O)(=O)c1ccc(NC(=O)Cc2ccccc2)cc1 | 55 µmol/kg | Ki (Carbonic anhydrase 1): 7.6 nM; Ki (Carbonic anhydrase 14): 46 nM; Ki (Carbonic anhydrase 7): 52 nM |
| CCC(CC)C(=O)NCc1ccc(S(N)(=O)=O)cc1 | 87 µmol/kg | – |
| CC1(C)O[C@@H]2[C@@H](CO[C@@]3(COS(N)(=O)=O)OC(C)(C)O[C@@H]23)O1 [TOPIRAMATE] | 10 µmol/kg | – |
| NS(=O)(=O)Cc1noc2ccccc12 [ZONISAMIDE] | 100 µmol/kg | – |
